According to PubChem BioAssay (NCI):
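Test compounds were applied to cells in 96-well plates for 48 hours at 5 doses. The concentration for 50% growth inhibition is given as GI50. TGI: total growth inhibition.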

Columns and labels:
Assay in all cases: NCI tumour cell line growth inhibition, 48 h
786-0 renal = test system: 786-0 renal
HS 578T breast = test system: HS 578T breast
K-562 leukemia = test system: K-562 leukemia
MALME-3M melanoma = test system: MALME-3M melanoma
OVCAR-3 ovarian = test system: OVCAR-3 ovarian
OVCAR-5 ovarian = test system: OVCAR-5 ovarian
RXF 393 renal = test system: RXF 393 renal
SN12C renal = test system: SN12C renal
UACC-257 melanoma = test system: UACC-257 melanoma
MOLT-4 leukemia = test system: MOLT-4 leukemia

Compound	TGI (786-0 renal)	TGI (HS 578T breast)	TGI (K-562 leukemia)	TGI (MALME-3M melanoma)	TGI (OVCAR-3 ovarian)	TGI (OVCAR-5 ovarian)	TGI (RXF 393 renal)	TGI (SN12C renal)	TGI (UACC-257 melanoma)	TGI (MOLT-4 leukemia)	GI50 (786-0 renal)	GI50 (HS 578T breast)	GI50 (K-562 leukemia)	GI50 (MOLT-4 leukemia)	GI50 (OVCAR-3 ovarian)	GI50 (OVCAR-5 ovarian)	GI50 (RXF 393 renal)	GI50 (SN12C renal)	GI50 (UACC-257 melanoma)	GI50 (MALME-3M melanoma)
CN(C)c1ccc2cc3ccc(N(C)C)cc3nc2c1	2.26 µM	10.7 µM	21.6 µM	10.1 µM	13.4 µM	9.82 µM	22.7 µM	7.28 µM	24.8 µM											
CN(C)C(=S)/N=c1\ss/c(=N\C(=S)N(C)C)n1Cc1ccco1	> 100 µM		> 100 µM	> 100 µM			> 100 µM	> 100 µM	> 100 µM	> 100 µM										
CN(C(=O)C12C3C4C1C1C2C3C41C(O)C(C)(C)C)C(C)(C)C (stereo not given)	> 100 µM		> 100 µM	> 100 µM	> 100 µM	> 100 µM		> 100 µM	> 100 µM	> 100 µM										
O=C(Oc1ccccc1Cl)c1ccccc1Nc1cccc(C(F)(F)F)c1	96.6 µM	67.1 µM	8.43 µM		32.9 µM	94.7 µM	43.9 µM	> 100 µM	76 µM	14.6 µM	27.2 µM	26.1 µM	2.67 µM	3.89 µM	15.4 µM	30.6 µM	13.9 µM	23.4 µM	26.4 µM	
O=S1c2ccccc2NC(c2ccc3ccccc3c2)CC1c1ccccc1 (stereo not given)	31.1 µM		37.5 µM	> 100 µM	35.1 µM	> 100 µM	30.5 µM	> 100 µM	> 100 µM	70.3 µM										
CN(C)c1ccc(Nc2c3ccccc3nc3cc(NC(=O)CCN4CCCC4)ccc23)cc1	1.38 µM			2.41 µM	2.25 µM	2.74 µM	1.69 µM	1.25 µM	3.51 µM	1.07 µM	0.343 µM			0.042 µM	0.81 µM	0.89 µM	0.466 µM	0.197 µM	1.65 µM	1.12 µM
C[N+](C)(C)CC(CC(=O)[O-])C1CC1 (stereo not given)	> 100 µM		> 100 µM	> 100 µM	> 100 µM	> 100 µM	> 100 µM	> 100 µM	> 100 µM	> 100 µM										
O=C(O)c1cn(C2CC2)c2cc(N3CCNCC3)c(F)cc2c1=O	> 100 µM	> 100 µM		> 100 µM	> 100 µM	> 100 µM	> 100 µM	> 100 µM	> 100 µM		> 100 µM	42.3 µM			> 100 µM	> 100 µM	> 100 µM	> 100 µM	> 100 µM	74.6 µM
Fc1ccc([C@@H]2CCNC[C@H]2COc2ccc3c(c2)OCO3)cc1	25.7 µM	62.3 µM	6.24 µM	6.12 µM	22.8 µM	28.4 µM	20.1 µM	18.9 µM	24.6 µM		12.3 µM	19.8 µM	2.32 µM		10.5 µM	14.3 µM	5.28 µM	5.79 µM	11.2 µM	2.68 µM
